The values that follow come from patent EP4722219A1 (Gan & Lee Pharmaceuticals Co., Ltd., priority 2023, dated 2024).

Common to all, as to format: cell-based
One test concerns the target T1, AR protein (Homo sapiens, UniProt P10275).
T1 construct: host or cells: VCaP
T1 sequence (P10275 1-920): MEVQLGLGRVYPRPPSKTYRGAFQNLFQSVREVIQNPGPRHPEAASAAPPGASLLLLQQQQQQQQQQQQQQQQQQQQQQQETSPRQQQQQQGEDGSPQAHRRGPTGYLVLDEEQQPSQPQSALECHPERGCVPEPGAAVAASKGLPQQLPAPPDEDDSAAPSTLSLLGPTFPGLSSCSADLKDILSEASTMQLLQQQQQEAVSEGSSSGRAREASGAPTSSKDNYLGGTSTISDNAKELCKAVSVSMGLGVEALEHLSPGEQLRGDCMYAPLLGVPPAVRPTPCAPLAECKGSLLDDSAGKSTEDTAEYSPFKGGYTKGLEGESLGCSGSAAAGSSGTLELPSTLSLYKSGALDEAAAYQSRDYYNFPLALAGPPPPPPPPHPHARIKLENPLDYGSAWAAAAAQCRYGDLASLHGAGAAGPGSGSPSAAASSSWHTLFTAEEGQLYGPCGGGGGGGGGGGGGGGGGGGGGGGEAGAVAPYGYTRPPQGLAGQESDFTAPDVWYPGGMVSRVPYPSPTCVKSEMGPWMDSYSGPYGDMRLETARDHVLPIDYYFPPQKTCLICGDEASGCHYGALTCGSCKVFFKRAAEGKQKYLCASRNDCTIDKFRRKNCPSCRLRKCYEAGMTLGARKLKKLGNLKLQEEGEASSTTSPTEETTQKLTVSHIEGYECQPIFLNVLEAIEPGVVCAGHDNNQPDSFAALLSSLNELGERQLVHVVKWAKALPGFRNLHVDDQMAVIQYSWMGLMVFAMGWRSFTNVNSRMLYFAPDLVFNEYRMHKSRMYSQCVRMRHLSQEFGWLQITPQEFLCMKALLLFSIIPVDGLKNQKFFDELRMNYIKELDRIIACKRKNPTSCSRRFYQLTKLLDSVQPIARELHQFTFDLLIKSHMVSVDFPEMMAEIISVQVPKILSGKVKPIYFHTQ
In words: AR protein degradation in VCaP cells (Western blot). The following applies: 8h. A digest of the protocol: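 AR-positive VCaP human prostate cancer cells grown in DMEM with 10% FBS were plated in six-well plates at 3×10^5 cells/well and incubated overnight. Compounds were then added at 1 µL/well alongside a solvent control and incubated for 8h. Lysates in RIPA buffer with protease inhibitor were quantified by BCA and run by SDS-PAGE. AR was detected by Western blot, and degradation was calculated from band grayscale normalized to GAPDH.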
On the technique in general: Immunoblotting shows a protein as a band on a membrane.

Another test concerns LNCaP cells. The test can be described thus: Inhibition of LNCaP cell proliferation (WST-8). The conditions noted are these: Homo sapiens, LNCaP FGC cells, 96 hours. A digest of the protocol:
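Cells were seeded and cultured overnight at 37 °C, 5% CO2, then exposed for 96 h to compound at 9 concentrations, 5-fold serial dilution from 10 µM final. Viability was read by WST-8 absorbance at 450 nm.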
In general terms: Tetrazolium assays rely on reduction of a dye to a coloured formazan, in cell work by metabolically active cells.

A further test deals with VCaP cells. The test can be described thus: Inhibition of VCaP cell proliferation (WST-8). The conditions noted are these: Homo sapiens, 168 hours. A digest of the protocol: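 VCaP cells seeded at 15,000/well in DMEM + 10% FBS, treated next day with nine 5-fold dilutions from 10 µM (final) at 37°C, 5% CO2. Viability read by WST-8 absorbance at 450 nm on day 9.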

A word on the IC50: it is the concentration that gives 50% inhibition. Low values mean inhibition by little substance, high ones a need for much substance. Take `COc1cc(O[C@H]2C(C)(C)[C@H](NC(=O)c3ccc(N4CCC5(CC4)CC(N4CCC6(CC4)COc4cc7c(cc46)n(C)c(=O)n7C4CCC(=O)NC4=O)C5)nn3)C2(C)C)ccc1C#N` (relative stereo) [A-P-14, N-((1r,3r)-3-(4-cyano-3-methoxyphenoxy)-2,2,4,4-tetramethylcyclobutyl)-6-(2-(3-(2,6-dioxopiperidin-3-yl)-1-methyl-2-oxo-2,3-dihydro-1H,6H-spiro[benzofuro[5,6-d]imidazole-7,4'-piperidin]-1'-yl)-7-azaspiro[3.5]nonan-7-yl)pyridazine-3-carboxamide]: the results for the “Degradation rate of AR protein in VCaP cells” value (from here on “Degradation rate of AR protein”) at AR protein (0.5 nM) and on AR protein (5 nM) were 63% and 82%, respectively. Moreover, the results for the IC50 in the test with LNCaP cells and in the test on VCaP cells were 1.1 µM and 2.2 nM, respectively.
Turning to `COc1cc(O[C@H]2C(C)(C)[C@H](NC(=O)c3ccc(N4CCC(C)(CN5CCC6(CC5)COc5cc7c(cc56)n(C)c(=O)n7C5CCC(=O)NC5=O)CC4)cc3)C2(C)C)ccc1C#N` (relative stereo) [A-P-16], the “Degradation rate of AR protein” value turned out to be 66% on AR protein (0.5 nM) and 83% on AR protein (5 nM). Further, the values for the IC50 in the test with LNCaP cells and in the test with VCaP cells were over 90 µM and 1 nM, respectively.
Regarding `COc1cc(O[C@H]2CC[C@H](NC(=O)c3ccc(N4CCC(CN5CCC6(CC5)COc5cc7c(cc56)n(C)c(=O)n7C5CCC(=O)NC5=O)CC4)nn3)CC2)ccc1C#N` (relative stereo) [A-P-17], the “Degradation rate of AR protein” value on AR protein (0.5 nM) was 81%; at AR protein (5 nM), 75%. Moreover, the results for the IC50 in the test on LNCaP cells and in the test with VCaP cells were 91.2 µM and 72 nM, respectively.
In the case of `COc1cc(O[C@H]2C(C)(C)[C@H](NC(=O)c3ccc(N4CCC5(CC4)CC(N4CCC6(CC4)COc4cc7c(cc46)n(C)c(=O)n7C4CCC(=O)NC4=O)C5)cc3)C2(C)C)ccc1C#N` (relative stereo) [A-P-21], the “Degradation rate of AR protein” value was determined as 57% on AR protein (0.5 nM) and 71% on AR protein (5 nM). For the same compound, the IC50 amounted to 8.23 µM with LNCaP cells and 2 nM in the test on VCaP cells.
As for `COc1cc(O[C@H]2C(C)(C)[C@H](NC(=O)c3ccc(N4CCC(N5CC6(CCC7(CC6)COc6c7ccc7c6CN(C6CCC(=O)NC6=O)C7=O)C5)CC4)cc3)C2(C)C)ccc1C#N` (stereo partly shown) [A-P-2], at AR protein (0.5 nM), the AR protein degradation rate at fixed concentration (%) at 0.0005 µM came to 50%. Also, on AR protein (5 nM), the AR protein degradation rate at fixed concentration (%) at 0.005 µM was 83%. Moreover, the IC50 with LNCaP cells stood at 2.89 µM; in the test with VCaP cells, 0.06 nM.
Consider `Cn1c(=O)n(C2CCC(=O)NC2=O)c2cc3c(cc21)C1(CCN(CC2CCN(c4ccc(C(=O)N[C@H]5CC[C@H](Oc6ccc(C#N)c(Cl)c6)CC5)nn4)CC2)CC1)CO3` (stereo partly shown) [A-P-10], for which the AR protein degradation rate at fixed concentration (%) at 0.0005 µM at AR protein (0.5 nM) worked out at 75%. In addition, the AR protein degradation rate at fixed concentration (%) at 0.005 µM at AR protein (5 nM) was found to be 78%. Besides, the half-maximal inhibitory concentration (IC50) with LNCaP cells is 137 µM; in the test on VCaP cells, 6 nM.
`COc1cc(O[C@H]2C(C)(C)[C@H](NC(=O)c3ccc(N4CCC(F)(CN5CCC6(CC5)COc5cc7c(cc56)n(C)c(=O)n7C5CCC(=O)NC5=O)CC4)cc3)C2(C)C)ccc1C#N` (stereo partly shown) [A-P-13]: the AR protein degradation rate at fixed concentration (%) at 0.0005 µM at AR protein (0.5 nM) is 44%. On AR protein (5 nM), the AR protein degradation rate at fixed concentration (%) at 0.005 µM was 77%. Besides, the half-maximal inhibitory concentration (IC50) in the test with LNCaP cells is 61 µM; with VCaP cells it was 4.3 nM.
On to `COc1cc(O[C@H]2CC[C@H](NC(=O)c3ccc(N4CCC(N5CCC6(CC5)COc5cc7c(cc56)n(C)c(=O)n7C5CCC(=O)NC5=O)CC4)nn3)CC2)ccc1C#N` (stereo partly shown) [A-P-18, N-((1r,4r)-4-(4-cyano-3-methoxyphenoxy)cyclohexyl)-6-(4-(3-(2,6-dioxopyridyl-3-yl)-1-methyl-2-oxo-2,3-dihydro-1H,6H-spiro[benzofuro[5,6-d]imidazole-7,4'-piperidin]-1'-yl)piperidin-1-yl)pyridazine-3-carboxamide], for which the AR protein degradation rate at fixed concentration (%) at 0.0005 µM at AR protein (0.5 nM) stood at 76%. On AR protein (5 nM), the AR protein degradation rate at fixed concentration (%) at 0.005 µM was determined as 73%. For the same compound, the IC50 is 120 µM in the test on LNCaP cells and under 0.0051 nM in the test on VCaP cells.
Take `COc1cc(O[C@H]2CC[C@H](NC(=O)c3ccc(N4CCC(CN5CCC6(CC5)COc5c6ccc6c5n(C)c(=O)n6C5CCC(=O)NC5=O)CC4)nn3)CC2)ccc1C#N` (stereo partly shown) [A-P-22]: the AR protein degradation rate at fixed concentration (%) at 0.0005 µM on AR protein (0.5 nM) turned out to be 84%. Besides, the AR protein degradation rate at fixed concentration (%) at 0.005 µM at AR protein (5 nM) was determined as 69%. Also, the 50% inhibitory concentration (IC50) was determined as 47.6 µM in the test with LNCaP cells and 0.026 nM in the test on VCaP cells.
For `Cn1c(=O)n(C2CCC(=O)NC2=O)c2ccc3c(c21)OCC31CCN(C2CCN(c3ccc(C(=O)N[C@H]4CC[C@H](Oc5ccc(C#N)c(Cl)c5)CC4)nn3)CC2)CC1` (stereo partly shown) [A-P-23], in that order: 85%, 74%, 22.4 µM and 0.046 nM.
As to `Cn1c(=O)n(C2CCC(=O)NC2=O)c2ccc3c(c21)OCC31CCN(CC2CCN(c3ccc(C(=O)N[C@H]4CC[C@H](Oc5ccc(C#N)c(Cl)c5)CC4)nn3)CC2)CC1` (stereo partly shown) [A-P-24], the AR protein degradation rate at fixed concentration (%) at 0.0005 µM on AR protein (0.5 nM) was found to be 85%. In addition, the AR protein degradation rate at fixed concentration (%) at 0.005 µM at AR protein (5 nM) was 85%. Moreover, the 50% inhibitory concentration (IC50) in the test on LNCaP cells worked out at 22.8 µM; in the test with VCaP cells, 0.0081 nM.
Take `Cn1c(=O)n(C2CCC(=O)NC2=O)c2ccc3c(c21)OCC31CCN(C2CC3(CCN(c4ccc(C(=O)N[C@H]5CC[C@H](Oc6ccc(C#N)c(Cl)c6)CC5)nn4)CC3)C2)CC1` (stereo partly shown) [A-P-25]: the AR protein degradation rate at fixed concentration (%) at 0.0005 µM at AR protein (0.5 nM) stood at 91%. In addition, the AR protein degradation rate at fixed concentration (%) at 0.005 µM on AR protein (5 nM) was determined as 90%. Further, the concentration for half-maximal inhibition (IC50) with LNCaP cells was 47.7 µM; in the test with VCaP cells, 0.14 nM.
Turning to `C[C@H]1CC2(CCN(c3ccc(N4CCC(CN5CCC6(CC5)COc5ccc7c(c56)n(C)c(=O)n7C5CCC(=O)NC5=O)CC4)cc3)CC2)CN1c1ccc(C#N)c(Cl)c1` (stereo partly shown) [A-P-26, 2-chloro-4-((3 S)-8-(4-(4-((3-((2,6-dioxopiperidin-3-yl))-1-methyl-2-oxo-2,3-dihydro-1H,7H-spiro[benzofuro[4,5-d]imidazole-8,4'-piperidin]-1'-yl)methyl)piperidin-1-yl)phenyl)-3-methyl-2,8-diazaspiro[4.5]decan-2-yl)benzonitrile], at AR protein (0.5 nM), the AR protein degradation rate at fixed concentration (%) at 0.0005 µM is -43%. In addition, the AR protein degradation rate at fixed concentration (%) at 0.005 µM on AR protein (5 nM) came to 18%. In addition, the half-maximal inhibitory concentration (IC50) with LNCaP cells was 4.91 µM; in the test on VCaP cells, 34 nM.
Consider `COc1cc(O[C@H]2C(C)(C)[C@H](NC(=O)c3ccc(N4CCC(N5CCC6(CC5)COc5c6ccc6c5n(C)c(=O)n6C5CCC(=O)NC5=O)CC4)cc3)C2(C)C)ccc1C#N` (stereo partly shown) [A-P-29], for which the AR protein degradation rate at fixed concentration (%) at 0.0005 µM at AR protein (0.5 nM) came to 70%. The AR protein degradation rate at fixed concentration (%) at 0.005 µM at AR protein (5 nM) came out at 68%. In addition, the IC50 in the test on LNCaP cells amounted to 15.1 µM; with VCaP cells it was 19 nM.
For the compound `COc1cc(O[C@H]2C(C)(C)[C@H](NC(=O)c3ccc(N4CCC(CN5CCC6(CCc7cc(C(=O)N[C@H]8CCC(=O)NC8=O)c(F)cc7O6)CC5)CC4)cc3)C2(C)C)ccc1C#N` [A-P-30], the “Degradation rate of AR protein” value was 36% at AR protein (0.5 nM) and 71% at AR protein (5 nM). In addition, the values for the IC50 in the test on LNCaP cells and in the test on VCaP cells were 1.48 µM and 1000 nM, respectively.
Consider `COc1cc(O[C@H]2C(C)(C)[C@H](NC(=O)c3ccc(N4CCC(C)(CN5CCC6(CCc7cc(C(=O)N[C@H]8CCC(=O)NC8=O)c(F)cc7O6)CC5)CC4)cc3)C2(C)C)ccc1C#N` [A-P-31, 1'-((1-((4-((1r,3r)-3-(4-cyano-3-methoxyphenoxy)-2,2,4,4-tetramethylcyclobutyl)carbamoyl)phenyl)-4-methylpiperidin-4-yl)methyl)-N-((S)-2,6-dioxopiperidin-3-yl)-7-fluorospiro[2,4'-piperidin]-6-carboxamide], for which the AR protein degradation rate at fixed concentration (%) at 0.0005 µM on AR protein (0.5 nM) was -13%. The AR protein degradation rate at fixed concentration (%) at 0.005 µM on AR protein (5 nM) stood at 41%. In addition, the values for the half-maximal inhibitory concentration (IC50) in the test on LNCaP cells and with VCaP cells were 0.58 µM and 3170 nM, respectively.
